Assay results from US12139520B2 (priority 2020, dated 2024).
Numbered stars: 1 amine (or outer) side, 2 acyl side, 3 side chain; on linkers, the order of the positions; unused ones are H or OH. Bridge positions count the residues as written; N and C are the ends. Square brackets hold non-standard residues; d marks the D form. Side chains are listed from the residue outwards. Peptide text beside a SMILES is read from it. * marks the point of attachment. C20 diacid = O=C(O)CCCCCCCCCCCCCCCCCCC(=O)*; γGlu = O=C(O)[C@H](CCC(=O)[*:2])N[*:1]; Hyp = O=C(O)[C@@H]1C[C@@H](O)CN1; AEEA = NCCOCCOCC(=O)O

Columns and labels:
hAMY3 receptor = target: T1, hAMY3 receptor (Homo sapiens, UniProt O60896+P30988); experiment: cAMP assay for in vitro receptor activation, hAMY3-R; type: cell-based; details: cAMP assay, hAMY3 receptor; read-out: hAMY3R EC50
T1 sequence (P30988 25-474): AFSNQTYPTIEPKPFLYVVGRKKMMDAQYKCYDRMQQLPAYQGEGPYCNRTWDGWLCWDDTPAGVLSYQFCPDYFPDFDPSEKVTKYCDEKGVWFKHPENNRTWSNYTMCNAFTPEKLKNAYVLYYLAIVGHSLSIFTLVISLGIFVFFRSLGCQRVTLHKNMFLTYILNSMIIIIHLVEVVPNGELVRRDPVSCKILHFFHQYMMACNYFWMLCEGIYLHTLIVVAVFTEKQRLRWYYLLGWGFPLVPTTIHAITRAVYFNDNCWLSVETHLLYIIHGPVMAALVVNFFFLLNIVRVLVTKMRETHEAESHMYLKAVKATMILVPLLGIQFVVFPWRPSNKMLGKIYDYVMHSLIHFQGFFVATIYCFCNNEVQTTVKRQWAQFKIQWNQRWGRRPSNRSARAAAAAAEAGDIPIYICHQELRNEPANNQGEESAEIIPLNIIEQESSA
T1 sequence (O60896 24-148 partner): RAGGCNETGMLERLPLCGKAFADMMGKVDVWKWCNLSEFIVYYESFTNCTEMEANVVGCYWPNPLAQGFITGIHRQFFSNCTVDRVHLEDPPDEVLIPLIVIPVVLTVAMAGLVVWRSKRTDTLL
How it was run: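 Read-out is TR-FRET cAMP signal, recorded one hour after reagent addition, following 30 min room-temperature stimulation of stable hAMY3 cells with graded compound doses in casein/IBMX (0.5 mM) buffer.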

hAM1 receptor = hAM1 receptor (Homo sapiens, UniProt O60895+Q16602); experiment: cAMP assay for in vitro receptor activation, hAM1-R; type: cell-based; details: cAMP assay, hAM1 receptor; read-out: hAM1R EC50
How it was run: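 A subcloned monoclonal line stably expressing hAM1 receptor is thawed and plated at 8000 cells/well. The assay buffer is DPBS with 0.05% casein and 0.5 mM IBMX, and receptor activation is followed by cAMP levels.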

[1] = Acute food intake study in lean rats; type: in vivo, rat; details: single SC injection, lean healthy rats; for Average cumulative food intake: up to 48 h, P < 0.001 vs vehicle
Method: General Protocols for Acute Food Intake Study
The effect on cumulative food intake was measured in male Sprague Dawley rats (6 weeks of age, Taconic, Denmark) following a single dose using a fully automated food intake monitoring system (HM-2; MBRose ApS, Faaborg, Denmark), allowing for advanced synchronous real-time monitoring of food intake behaviour of individual animals. The animals were housed in groups of 4 in a light-, temperature-, and humidity-controlled room (a 12/12 LD cycle, lights on at 02:00 AM; 22±2° C.; 50% relative humidity). The mice had ad libitum access to regular chow diet (Altromin 1324, Brogaarden A/S, Lynge, Denmark) and domestic quality tap water. Mice arrived at day 7, and a minimum of 5 days of habituation to the system was allowed prior to beginning of the study. During these days, the animals were handled daily to accustom them to the experimental paradigm. On the day of dosing, the animals were randomized into groups according to body weight. Animals were fasted for four hours prior to dosing. Animals were dosed SC 30 or 180 min prior to lights out, and food intake data were collected automatically for a total of 48 h post-dosing with automatic food recordings every 5 min.

hAM1 receptor, sequence (Q16602 23-461): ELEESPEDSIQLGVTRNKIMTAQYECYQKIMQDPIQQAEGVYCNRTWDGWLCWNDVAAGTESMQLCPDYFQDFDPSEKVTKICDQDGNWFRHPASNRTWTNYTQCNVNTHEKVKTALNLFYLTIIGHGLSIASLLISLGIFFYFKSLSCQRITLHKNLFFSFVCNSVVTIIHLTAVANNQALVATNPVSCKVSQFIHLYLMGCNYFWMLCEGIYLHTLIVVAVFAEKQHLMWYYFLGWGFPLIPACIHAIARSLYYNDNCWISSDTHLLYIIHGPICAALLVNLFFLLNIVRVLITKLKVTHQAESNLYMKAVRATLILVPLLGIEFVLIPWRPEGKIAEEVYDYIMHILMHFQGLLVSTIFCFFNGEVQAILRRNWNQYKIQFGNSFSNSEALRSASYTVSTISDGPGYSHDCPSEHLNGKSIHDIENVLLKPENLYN
hAM1 receptor, sequence (O60895 43-175 partner): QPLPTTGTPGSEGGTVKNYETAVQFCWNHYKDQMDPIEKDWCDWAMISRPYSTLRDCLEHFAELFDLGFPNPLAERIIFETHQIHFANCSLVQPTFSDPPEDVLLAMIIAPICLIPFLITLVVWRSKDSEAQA

Row | Structure (SMILES) | EC50 (hAMY3 receptor) [nM] | EC50 (hAM1 receptor) [nM] | cumulative food intake, % to vehicle ([1]; 10 nmol/kg) [%] | Average cumulative food intake ([1]; 10 nmol/kg) [g] | cumulative food intake, % to vehicle ([1]; 30 nmol/kg) [%] | Average cumulative food intake ([1]; 30 nmol/kg) [g]
1 | CC[C@H](C)[C@H](NC(=O)[C@H](CCC(N)=O)NC(=O)[C@H](Cc1c[nH]cn1)NC(=O)[C@H](C)NC(=O)[C@H](CC(C)C)NC(=O)[C@H](CCCNC(=N)N)NC(=O)[C@H](CCC(N)=O)NC(=O)[C@@H](NC(=O)[C@@H](NC(=O)[C@@H]1CSSC[C@H](NC(=O)[C@H](CCCCN)NC(=O)CC[C@H](NC(=O)CCCCCCCCCCCCCCCCCCC(=O)O)C(=O)O)C(=O)N[C@@H](CC(N)=O)C(=O)N[C@@H]([C@@H](C)O)C(=O)N[C@@H](C)C(=O)N[C@@H]([C@@H](C)O)C(=O)N1)[C@@H](C)O)C(C)C)C(=O)N[C@H](C(=O)N[C@@H](CCC(N)=O)C(=O)N[C@@H](Cc1ccccc1)C(=O)N[C@H](C(=O)N[C@@H](CC(=O)O)C(=O)N[C@@H](CCCCN)C(=O)N[C@@H](CC(=O)O)C(=O)N[C@@H](CCCCN)C(=O)N[C@@H](CC(=O)O)C(=O)N[C@@H](CC(N)=O)C(=O)N[C@H](C(=O)N[C@@H](C)C(=O)N1CCC[C@H]1C(=O)N1CCC[C@H]1C(=O)N[C@H](C(=O)N[C@@H](CC(N)=O)C(=O)N[C@H](C(=O)NCC(=O)N[C@@H](CO)C(=O)N[C@@H](CC(N)=O)C(=O)NCC(=O)N1C[C@H](O)C[C@H]1C(N)=O)C(C)C)[C@@H](C)O)C(C)C)[C@@H](C)O)C(C)C [compound 85] ({C20 diacid-γGlu}-KCNTATCTVQRLAHQIVQFTDKDKDNVAPPTNVGSNG[Hyp]-NH2; disulfide 2-7) | 0.015 | > 5000 | 45.70 | 18.6 |  | 
2 | CC[C@H](C)[C@H](NC(=O)[C@H](CCC(N)=O)NC(=O)[C@H](CCC(=O)O)NC(=O)[C@H](C)NC(=O)[C@H](CC(C)C)NC(=O)[C@H](CCCNC(=N)N)NC(=O)[C@H](CCC(N)=O)NC(=O)[C@@H](NC(=O)[C@@H](NC(=O)[C@@H]1CSSC[C@H](NC(=O)[C@@H](N)CCCCN)C(=O)N[C@@H](CCCCNC(=O)COCCOCCNC(=O)COCCOCCNC(=O)CC[C@H](NC(=O)CCCCCCCCCCCCCCCCCCC(=O)O)C(=O)O)C(=O)N[C@@H]([C@@H](C)O)C(=O)N[C@@H](C)C(=O)N[C@@H]([C@@H](C)O)C(=O)N1)[C@@H](C)O)C(C)C)C(=O)N[C@@H](Cc1ccc(O)cc1)C(=O)N[C@@H](CCC(N)=O)C(=O)N[C@@H](Cc1ccccc1)C(=O)N[C@H](C(=O)N[C@@H](CC(=O)O)C(=O)N[C@@H](CCCCN)C(=O)N[C@@H](CC(=O)O)C(=O)N[C@@H](CCCCN)C(=O)N[C@@H](CC(=O)O)C(=O)N[C@@H](CC(N)=O)C(=O)N[C@H](C(=O)N[C@@H](C)C(=O)N1CCC[C@H]1C(=O)N1CCC[C@H]1C(=O)N[C@H](C(=O)N[C@@H](CC(N)=O)C(=O)N[C@H](C(=O)NCC(=O)N[C@@H](CO)C(=O)N[C@@H](CC(N)=O)C(=O)NCC(=O)N1C[C@H](O)C[C@H]1C(N)=O)C(C)C)[C@@H](C)O)C(C)C)[C@@H](C)O [compound 36] (H-KCK([AEEA-AEEA-γGlu-C20 diacid])TATCTVQRLAEQIYQFTDKDKDNVAPPTNVGSNG[Hyp]-NH2; disulfide 2-7; N-terminus assumed) | 0.009 | > 5000 | 55.61 | 23.3 |  | 
3 | CC[C@H](C)[C@H](NC(=O)[C@H](C)NC(=O)CNC(=O)[C@H](Cc1ccccc1)NC(=O)[C@H](CC(N)=O)NC(=O)[C@H](CC(N)=O)NC(=O)[C@H](CO)NC(=O)[C@H](CO)NC(=O)[C@H](Cc1c[nH]cn1)NC(=O)[C@@H](NC(=O)[C@H](CC(C)C)NC(=O)[C@H](Cc1ccccc1)NC(=O)[C@H](CC(N)=O)NC(=O)[C@H](C)NC(=O)[C@H](CC(C)C)NC(=O)[C@H](CCCNC(=N)N)NC(=O)[C@H](CCC(N)=O)NC(=O)[C@@H](NC(=O)[C@H](C)NC(=O)[C@@H]1CSSC[C@H](NC(=O)[C@@H](N)CCCCN)C(=O)N[C@@H](CC(N)=O)C(=O)N[C@@H]([C@@H](C)O)C(=O)N[C@@H](C)C(=O)N[C@@H]([C@@H](C)O)C(=O)N1)[C@@H](C)O)C(C)C)C(=O)N[C@@H](C)C(=O)N1CCC[C@H]1C(=O)N[C@@H](CO)C(=O)N[C@H](C(=O)N[C@@H](CCCCN)C(=O)N[C@H](C(=O)NCC(=O)N[C@@H](CO)C(=O)N[C@@H](CC(N)=O)C(=O)NCC(=O)N[C@@H](Cc1ccc(O)cc1)C(N)=O)C(C)C)[C@@H](C)O [compound 93] (H-KCNTATCATQRLANFLVHSSNNFGAIAPSTKVGSNGY-NH2; disulfide 2-7; N-terminus assumed) | 0.016 | > 5000 | 46.93 | 19.1 |  | 

Further lines, with some results ahead:

Row | EC50 (hAMY3 receptor) [nM] | EC50 (hAM1 receptor) [nM] | Structure (SMILES) | cumulative food intake, % to vehicle ([1]; 10 nmol/kg) [%] | Average cumulative food intake ([1]; 10 nmol/kg) [g] | cumulative food intake, % to vehicle ([1]; 30 nmol/kg) [%] | Average cumulative food intake ([1]; 30 nmol/kg) [g]
4 | 0.006 | > 5000 | CC[C@H](C)[C@H](NC(=O)[C@H](CCC(N)=O)NC(=O)[C@H](Cc1c[nH]cn1)NC(=O)[C@H](C)NC(=O)[C@H](CC(C)C)NC(=O)[C@H](CCCNC(=N)N)NC(=O)[C@H](CC(=O)O)NC(=O)[C@@H](NC(=O)[C@@H](NC(=O)[C@@H]1CSSC[C@H](NC(=O)[C@H](CCCCN)NC(=O)CC[C@H](NC(=O)CCCCCCCCCCCCCCCCCCC(=O)O)C(=O)O)C(=O)N[C@@H](CC(N)=O)C(=O)N[C@@H]([C@@H](C)O)C(=O)N[C@@H](C)C(=O)N[C@@H]([C@@H](C)O)C(=O)N1)[C@@H](C)O)C(C)C)C(=O)N[C@@H](Cc1ccc(O)cc1)C(=O)N[C@@H](CCC(N)=O)C(=O)N[C@@H](Cc1ccccc1)C(=O)N[C@H](C(=O)N[C@@H](CC(=O)O)C(=O)N[C@@H](CCCCN)C(=O)N[C@@H](CC(=O)O)C(=O)N[C@@H](CCCCN)C(=O)N[C@@H](CC(=O)O)C(=O)N[C@@H](CC(N)=O)C(=O)N[C@H](C(=O)N[C@@H](C)C(=O)N1CCC[C@H]1C(=O)N1CCC[C@H]1C(=O)N[C@H](C(=O)N[C@@H](CC(N)=O)C(=O)N[C@H](C(=O)NCC(=O)N[C@@H](CO)C(=O)N[C@@H](CC(N)=O)C(=O)NCC(=O)N1C[C@H](O)C[C@H]1C(N)=O)C(C)C)[C@@H](C)O)C(C)C)[C@@H](C)O [compound 4] ({C20 diacid-γGlu}-KCNTATCTVDRLAHQIYQFTDKDKDNVAPPTNVGSNG[Hyp]-NH2; disulfide 2-7) | 59.23 | 26.3 | 30.86 | 13.7
5 | 0.012 | > 5000 | CC[C@H](C)[C@H](NC(=O)[C@H](CCC(N)=O)NC(=O)[C@H](Cc1c[nH]cn1)NC(=O)[C@H](C)NC(=O)[C@H](CC(C)C)NC(=O)[C@H](CCCNC(=N)N)NC(=O)[C@H](CCC(N)=O)NC(=O)[C@@H](NC(=O)[C@@H](NC(=O)[C@@H]1CSSC[C@H](NC(=O)[C@H](CCCCN)NC(=O)CC[C@H](NC(=O)CCCCCCCCCCCCCCCCCCC(=O)O)C(=O)O)C(=O)N[C@@H](CC(N)=O)C(=O)N[C@@H]([C@@H](C)O)C(=O)N[C@@H](C)C(=O)N[C@@H]([C@@H](C)O)C(=O)N1)[C@@H](C)O)C(C)C)C(=O)N[C@@H](Cc1ccc(O)cc1)C(=O)N[C@@H](CCC(N)=O)C(=O)N[C@@H](Cc1ccccc1)C(=O)N[C@H](C(=O)N[C@@H](CC(=O)O)C(=O)N[C@@H](CCCCN)C(=O)N[C@@H](CC(=O)O)C(=O)N[C@@H](CCCCN)C(=O)N[C@@H](CC(=O)O)C(=O)N[C@@H](CC(N)=O)C(=O)N[C@H](C(=O)N[C@@H](C)C(=O)N1CCC[C@H]1C(=O)N1CCC[C@H]1C(=O)N[C@H](C(=O)N[C@@H](CCCCN)C(=O)N[C@H](C(=O)NCC(=O)N[C@@H](CO)C(=O)N[C@@H](CC(N)=O)C(=O)NCC(=O)N1C[C@H](O)C[C@H]1C(N)=O)C(C)C)[C@@H](C)O)C(C)C)[C@@H](C)O [compound 60] ({C20 diacid-γGlu}-KCNTATCTVQRLAHQIYQFTDKDKDNVAPPTKVGSNG[Hyp]-NH2; disulfide 2-7) | 69.59 | 30.9 | 45.72 | 20.3
